Measurements as given in the supplement of paper PMC10307832.

Experiments:
Test in all cases: relative viability (nuclei count vs DMSO), 5 days (fraction); higher = more cells survive
Tipifarnib + Trametinib = compound: Cn1cncc1[C@@](N)(c1ccc(Cl)cc1)c1ccc2c(c1)c(-c1cccc(Cl)c1)cc(=O)n2C [Tipifarnib] + CC(=O)Nc1cccc(-n2c(=O)n(C3CC3)c(=O)c3c(Nc4ccc(I)cc4F)n(C)c(=O)c(C)c32)c1 [Trametinib] (partner 0.02 µM)
Procedure, shortened: (§1)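 Relative viability was taken as the ratio of nuclei in treated wells to nuclei in vehicle wells. Lung cancer cell lines in 1536-well plates received compounds by pin tool one day after seeding, either one drug alone or a fixed anchor-drug dose plus five library-drug doses (not always all listed) in √10 steps. Nuclei were counted on 4× images after 5 days of treatment, and values are medians of duplicate plates.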

Tipifarnib + OSI-027 = compound: Cn1cncc1[C@@](N)(c1ccc(Cl)cc1)c1ccc2c(c1)c(-c1cccc(Cl)c1)cc(=O)n2C [Tipifarnib] + COc1cccc2cc(-c3nc([C@H]4CC[C@H](C(=O)O)CC4)n4ncnc(N)c34)[nH]c12 [OSI-027] (partner 0.5 µM)
Procedure, shortened: as §1

Tipifarnib + Lapatinib = compound: Cn1cncc1[C@@](N)(c1ccc(Cl)cc1)c1ccc2c(c1)c(-c1cccc(Cl)c1)cc(=O)n2C [Tipifarnib] + CS(=O)(=O)CCNCc1ccc(-c2ccc3ncnc(Nc4ccc(OCc5cccc(F)c5)c(Cl)c4)c3c2)o1 [Lapatinib] (partner 2 µM)
Procedure, shortened: as §1

Tipifarnib + Linsitinib = compound: Cn1cncc1[C@@](N)(c1ccc(Cl)cc1)c1ccc2c(c1)c(-c1cccc(Cl)c1)cc(=O)n2C [Tipifarnib] + C[C@]1(O)C[C@@H](c2nc(-c3ccc4ccc(-c5ccccc5)nc4c3)c3c(N)nccn32)C1 [Linsitinib] (partner 1 µM)
Procedure, shortened: as §1

Cell Line | relative viability (Tipifarnib + Trametinib; first compound 0.01 µM) | relative viability (Tipifarnib + Trametinib; first compound 0.03162 µM) | relative viability (Tipifarnib + Trametinib; first compound 0.1 µM) | relative viability (Tipifarnib + Trametinib; first compound 0.3162 µM) | relative viability (Tipifarnib + Trametinib; first compound 1 µM) | relative viability (Tipifarnib + OSI-027; first compound 0.01 µM) | relative viability (Tipifarnib + OSI-027; first compound 0.03162 µM) | relative viability (Tipifarnib + OSI-027; first compound 0.1 µM) | relative viability (Tipifarnib + OSI-027; first compound 0.3162 µM) | relative viability (Tipifarnib + OSI-027; first compound 1 µM) | relative viability (Tipifarnib + Lapatinib; first compound 0.01 µM) | relative viability (Tipifarnib + Lapatinib; first compound 0.03162 µM) | relative viability (Tipifarnib + Lapatinib; first compound 0.1 µM) | relative viability (Tipifarnib + Lapatinib; first compound 0.3162 µM) | relative viability (Tipifarnib + Lapatinib; first compound 1 µM) | relative viability (Tipifarnib + Linsitinib; first compound 0.01 µM) | relative viability (Tipifarnib + Linsitinib; first compound 0.03162 µM) | relative viability (Tipifarnib + Linsitinib; first compound 0.1 µM) | relative viability (Tipifarnib + Linsitinib; first compound 0.3162 µM) | relative viability (Tipifarnib + Linsitinib; first compound 1 µM)
NCI-H1666 | 0.832 | 0.798 | 0.846 | 0.811 | 0.679 | 0.73 | 0.737 | 0.585 | 0.566 | 0.602 | 0.666 | 0.61 | 0.591 | 0.474 | 0.388 | 0.719 | 0.704 | 0.623 | 0.549 | 0.573
NCI-H1734 | 0.66 | 0.555 | 0.556 | 0.478 | 0.407 | 0.581 | 0.444 | 0.463 | 0.316 | 0.365 | 1.18 | 0.995 | 0.682 | 0.618 | 0.431 | 0.875 | 0.85 | 0.709 | 0.694 | 0.48
NCI-H1755 | 0.793 | 0.732 | 0.718 | 0.723 | 0.714 | 0.75 | 0.603 | 0.677 | 0.622 | 0.452 | 1.03 | 0.988 | 0.981 | 0.906 | 0.507 | 0.995 | 0.957 | 0.928 | 0.913 | 0.897
NCI-H1792 | 0.409 | 0.241 | 0.246 | 0.242 | 0.239 | 0.9 | 0.76 | 0.548 | 0.32 | 0.357 | 0.942 | 0.941 | 0.782 | 0.574 | 0.298 | 0.436 | 0.453 | 0.257 | 0.207 | 0.233
NCI-H1793 | 0.426 | 0.37 | 0.342 | 0.381 | 0.339 | 0.254 | 0.326 | 0.204 | 0.215 | 0.216 | 0.882 | 0.691 | 0.742 | 0.381 | 0.52 | 0.983 | 0.577 | 0.737 | 0.751 | 0.576
NCI-H1915 | 0.298 | 0.269 | 0.214 | 0.201 | 0.195 | 0.445 | 0.357 | 0.399 | 0.325 | 0.288 | 0.927 | 0.67 | 0.56 | 0.416 | 0.282 | 0.902 | 0.695 | 0.631 | 0.542 | 0.583
NCI-H1944 | 0.438 | 0.371 | 0.348 | 0.297 | 0.302 | 0.419 | 0.324 | 0.307 | 0.247 | 0.263 | 0.854 | 0.622 | 0.599 | 0.444 | 0.342 | 1.3 | 1 | 1.09 | 0.644 | 0.737
NCI-H1975 | 0.316 | 0.272 | 0.337 | 0.252 | 0.288 | 0.788 | 0.701 | 0.567 | 0.318 | 0.31 | 1.01 | 0.933 | 0.933 | 0.631 | 0.65 | 1.07 | 1.16 | 0.876 | 0.614 | 0.714
NCI-H1993 | 0.575 | 0.476 | 0.485 | 0.594 | 0.61 | 0.469 | 0.613 | 0.531 | 0.644 | 0.604 | 0.747 | 0.835 | 0.699 | 0.716 | 0.779 | 0.772 | 0.746 | 0.73 | 0.732 | 0.789
NCI-H2009 | 0.265 | 0.21 | 0.192 | 0.183 | 0.185 | 0.659 | 0.362 | 0.335 | 0.299 | 0.245 | 0.99 | 0.707 | 0.708 | 0.602 | 0.326 | 1.19 | 1.09 | 0.903 | 0.702 | 0.667
NCI-H2023 | 0.46 | 0.373 | 0.403 | 0.228 | 0.234 | 0.412 | 0.273 | 0.225 | 0.143 | 0.132 | 1.01 | 0.544 | 0.348 | 0.357 | 0.105 | 0.598 | 0.503 | 0.37 | 0.329 | 0.384
NCI-H2085 | 0.58 | 0.603 | 0.44 | 0.408 | 0.366 | 0.738 | 0.377 | 0.397 | 0.367 | 0.538 | 0.846 | 0.659 | 0.633 | 0.523 | 0.533 | 0.923 | 0.651 | 0.514 | 0.404 | 0.479
NCI-H2087 | 0.157 | 0.221 | 0.235 | 0.145 | 0.14 | 0.464 | 0.205 | 0.232 | 0.161 | 0.164 | 0.934 | 0.493 | 0.475 | 0.404 | 0.344 | 0.797 | 0.583 | 0.514 | 0.5 | 0.447
NCI-H2126 | 0.585 | 0.496 | 0.528 | 0.515 | 0.482 | 0.719 | 0.719 | 0.711 | 0.614 | 0.435 | 0.782 | 0.724 | 0.769 | 0.761 | 0.469 | 0.758 | 0.617 | 0.692 | 0.692 | 0.682
NCI-H2228 | 0.542 | 0.378 | 0.385 | 0.303 | 0.177 | 0.502 | 0.427 | 0.363 | 0.214 | 0.168 | 1.02 | 0.705 | 0.782 | 0.444 | 0.315 | 0.771 | 0.416 | 0.611 | 0.382 | 0.494
NCI-H2347 | 0.308 | 0.283 | 0.269 | 0.261 | 0.293 | 0.479 | 0.368 | 0.411 | 0.259 | 0.334 | 0.827 | 0.727 | 0.642 | 0.582 | 0.642 | 0.973 | 0.739 | 0.649 | 0.693 | 0.735
